According to paper PMC5120204, “Identification of an orally active small-molecule PTHR1 agonist for the treatment of hypoparathyroidism” (Nature Communications, 2016):

What was measured:
[1] = biological target: T1, hPTHR1-delNT (Homo sapiens, UniProt Q03431); assay: cAMP production assay in COS-7 cells expressing hPTHR1-delNT; assay type: cell-based; conditions: COS-7 cells transfected with hPTHR1-delNT
T1 construct: HA + tetraglycine linker (YPYDVPDYA-GGGG); expressed in transfected cells; host or cells: COS-7 (transient)
T1 sequence (Q03431 with tags, fused parts or gaps): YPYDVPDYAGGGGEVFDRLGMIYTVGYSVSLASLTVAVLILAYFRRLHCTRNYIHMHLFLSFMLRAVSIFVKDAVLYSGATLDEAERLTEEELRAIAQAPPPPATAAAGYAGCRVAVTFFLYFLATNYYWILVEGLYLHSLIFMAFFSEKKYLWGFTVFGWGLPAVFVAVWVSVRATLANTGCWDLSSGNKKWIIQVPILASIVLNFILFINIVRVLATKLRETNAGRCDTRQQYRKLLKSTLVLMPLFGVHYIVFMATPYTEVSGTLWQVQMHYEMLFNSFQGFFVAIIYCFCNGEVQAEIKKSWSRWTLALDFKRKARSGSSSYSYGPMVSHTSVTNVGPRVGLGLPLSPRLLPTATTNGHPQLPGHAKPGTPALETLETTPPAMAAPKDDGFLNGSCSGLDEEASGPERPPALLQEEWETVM

[2] = biological target: T2, PTHR1 (Rattus norvegicus, UniProt P25961); assay: cAMP washout assay in UMR-106 cells; assay type: cell-based; conditions: washout 0–120 min
T2 construct: UMR-106 cells, which natively express rat PTHR1; endogenous in cells; host or cells: UMR-106 (ATCC)
T2 sequence (P25961 27-591): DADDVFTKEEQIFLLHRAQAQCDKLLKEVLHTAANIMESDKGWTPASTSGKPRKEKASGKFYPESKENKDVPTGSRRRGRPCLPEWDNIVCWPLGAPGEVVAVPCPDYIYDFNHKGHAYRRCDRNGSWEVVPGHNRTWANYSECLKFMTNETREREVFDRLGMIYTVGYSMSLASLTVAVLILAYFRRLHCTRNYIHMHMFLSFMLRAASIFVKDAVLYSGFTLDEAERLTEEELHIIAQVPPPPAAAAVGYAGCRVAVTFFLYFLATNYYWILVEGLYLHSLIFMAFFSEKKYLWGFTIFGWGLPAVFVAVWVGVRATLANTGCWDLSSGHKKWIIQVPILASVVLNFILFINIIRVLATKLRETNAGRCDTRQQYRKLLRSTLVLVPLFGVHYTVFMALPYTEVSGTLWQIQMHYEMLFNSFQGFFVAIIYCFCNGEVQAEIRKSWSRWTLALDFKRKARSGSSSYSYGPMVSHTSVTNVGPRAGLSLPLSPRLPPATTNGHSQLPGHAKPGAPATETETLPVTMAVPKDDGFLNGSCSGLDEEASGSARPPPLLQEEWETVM
Description: The duration of cAMP signalling capacity of PCO371, hPTH(1–34) and LA-PTH (synthesized at American Peptide Company, Inc.) was assessed in a time-course experiment in UMR-106 cells (cAMP washout assay). The cells were treated with assay medium (2 mg m l^−1 BSA, and 2 mmol l^−1 HEPES/McCoy's 5A medium, Life Technologies) alone (basal) or with ligands (1 μmol l^−1 for hPTH(1–34), 0.1 μmol l^−1 for LA-PTH and 0.1 mmol l^−1 for PCO371) in the assay medium for 10 min, washed (t=0), incubated for 0, 30, 60 and 120 min (washout phase), and then further incubated for 5 min in the assay medium containing IBMX (2 mmol l^−1). Incubations were terminated with 50 mmol l^−1 HCl. The cAMP concentrations were determined using a cAMP EIA kit (GE Healthcare).

[3] = system: TPTX rats; assay: Repeated administration study in TPTX rats, study 2 (add-on to alfacalcidol); assay type: in vivo, rat; conditions: once-daily oral 6 mg kg^−1 plus 38 ng kg^−1 of alfacalcidol, 4 weeks
Description: TPTX was carried out in 6-week-old female Crl:CD (SD) rats (Charles River Laboratories). Rats with serum Ca levels of <8.0 mg dl^−1 at 5 days after surgery were used in the following experiments. The rats were divided into four groups both in study 1 and 2, each with a similar mean value of serum Ca levels and body weight. Sample sizes were determined as described in the above single administration study. To evaluate the calcemic effects of PCO371 and hPTHs, we defined a target therapeutic range for serum Ca of 7.6–11.2 mg dl^−1, which corresponds to the low normal to normal range of serum Ca levels.
TPTX rats were orally treated once daily (vehicle; alfacalcidol (Chugai Pharma Manufacturing) at 38 or 75 ng kg^−1; or alfacalcidol at 38 ng kg^−1 plus PCO371 at 6 mg kg^−1) for 4 weeks. Five or six TPTX rats were assigned to each dose group. The vehicle for alfacalcidol was medium-chain triglyceride (Chugai Pharma Manufacturing). Under isoflurane anaesthesia, jugular vein blood was collected immediately before and at 6 and 10 h after administration to measure serum Ca levels on day 1 (the first dosing day), 8, 14, 22 and 28. Urine was collected for 24 h by using metabolic cages on days 28 and 29. Serum and urine Ca levels were measured in the same way as in the single-dosing study.

## Cc1cc(N2C(=O)NC(=O)C2(C)C)cc(C)c1CCS(=O)(=O)N1CCC2(CC1)N=C(c1ccc(OC(F)(F)F)cc1)NC2=O [PCO371, 1-{3,5-dimethyl-4-[2-({4-oxo-2-[4-(trifluoromethoxy)phenyl]-1,3,8-triazaspiro[4.5]dec-1-en-8-yl}sulfonyl)ethyl]phenyl}-5,5-dimethylimidazolidine-2,4-dione]
[1]
  EC50: 2500 nM
[2]
  duration of cAMP-signalling response: much shorter than that of hPTH(1–34)
[3]
  serum Ca: comparable with that by 75 ng kg^−1 of alfacalcidol alone
  urinary Ca excretion: did not elevate urinary Ca excretion
